Assay [1] addresses T1, human A2A AR (Homo sapiens, UniProt P29274).
T1 construct: expressed in transfected cells; host or cells: CHO cells
The assay is described as follows: Radioligand binding assay at human A2A AR vs. [^3H]MSX-2. To be noted: CHO cell membranes, n = 3, read-out: Ki ± SEM, A2A vs. [^3H]MSX-2. The protocol:
(§1) Membrane preparations and radioligand binding assays at rat A1 (rat brain cortex) and rat A2A ARs (rat brain striatum) were performed as previously described (Ozola et al., [2003]; Alnouri et al., [2015]). For assays at human A1, A2A, A2B, and A3 ARs, CHO cell membranes expressing one of the human AR subtypes were used as previously reported (Klotz et al., [1998]; Alnouri et al., [2015]; De Filippo et al., [2016]).
(§2) The synthesized tetrahydropyrazino[2,1-f ]purinediones 13–20 were evaluated in radioligand binding assays for their affinity to A1 ARs of rat brain cortical membrane and to A2A ARs of rat brain striatal membrane preparations. Selected compounds were further investigated for their affinity to human A1 and A2A ARs recombinantly expressed in Chinese hamster ovary (CHO) cells. All compounds were additionally investigated for their affinity to human A2B and A3 ARs recombinantly expressed in CHO cells to determine their AR subtype selectivity. […] It is well known that all xanthine derivatives lacking a ribose moiety, including tricyclic compounds, can only block ARs, but never act as AR agonists; therefore, additional functional studies were not required. […] Potent MAO-B inhibitors were additionally investigated for inhibition of human MAO-A to assess their selectivity. Results are presented in Tables 1–6, and data of standard ligands are included for comparison.

Assay [2] addresses T2, human A2B AR (Homo sapiens, UniProt P29275).
T2 construct: expressed in transfected cells; host or cells: CHO cells
T2 sequence (P29275 1-332): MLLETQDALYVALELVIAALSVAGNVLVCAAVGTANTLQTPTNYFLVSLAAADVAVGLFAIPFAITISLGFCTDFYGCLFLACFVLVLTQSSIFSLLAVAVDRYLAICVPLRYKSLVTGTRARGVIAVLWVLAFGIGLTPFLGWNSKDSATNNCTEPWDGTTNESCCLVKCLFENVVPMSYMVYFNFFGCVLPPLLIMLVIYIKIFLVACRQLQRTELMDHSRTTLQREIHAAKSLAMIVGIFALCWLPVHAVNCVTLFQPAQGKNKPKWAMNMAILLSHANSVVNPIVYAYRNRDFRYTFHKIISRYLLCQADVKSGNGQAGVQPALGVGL
The assay is described as follows: Radioligand binding assay at human A2B AR vs. [^3H]PSB-603. To be noted: for Ki: CHO cell membranes, n = 2 (n = 3 where marked a), read-out: Ki ± SEM, A2B vs. [^3H]PSB-603; for inhibition at 1 µM: at 1,000 nM, read-out: % inhibition of radioligand binding at indicated concentration, A2B vs. [^3H]PSB-603. An outline of the steps:
(§3)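 Rat A1 affinity was measured on cortical membranes and rat A2A on striatal membranes from rat brain. Human A1, A2A, A2B and A3 subtypes were tested on membranes of CHO cells recombinantly expressing each receptor. No functional assays were run, as these xanthine-type compounds act only as blockers.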

Assay [3] addresses T3, rat A1 AR (Rattus norvegicus, UniProt P25099).
T3 construct: A1 ARs of rat brain cortical membrane; from tissue; host or cells: rat brain cortex membranes
T3 sequence (P25099 1-326): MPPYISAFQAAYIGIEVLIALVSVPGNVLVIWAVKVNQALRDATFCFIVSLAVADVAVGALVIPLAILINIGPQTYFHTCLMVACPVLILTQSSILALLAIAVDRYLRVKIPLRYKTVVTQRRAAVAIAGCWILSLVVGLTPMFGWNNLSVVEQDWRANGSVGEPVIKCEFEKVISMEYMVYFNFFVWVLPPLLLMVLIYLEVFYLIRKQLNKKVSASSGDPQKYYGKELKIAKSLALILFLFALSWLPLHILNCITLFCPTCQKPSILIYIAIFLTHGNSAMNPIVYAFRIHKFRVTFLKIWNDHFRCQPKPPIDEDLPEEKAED
The assay is described as follows: Radioligand binding assay at rat A1 AR (rat brain cortex) vs. [^3H]CCPA. To be noted: rat (r); rat brain cortex; n = 3. An outline of the steps: as §3

Assay [4] has as its target T4, recombinant human MAO-B (Homo sapiens, UniProt P27338).
T4 construct: purchased Sigma-Aldrich M7441; host or cells: baculovirus-infected insect cells
T4 sequence (P27338 1-520): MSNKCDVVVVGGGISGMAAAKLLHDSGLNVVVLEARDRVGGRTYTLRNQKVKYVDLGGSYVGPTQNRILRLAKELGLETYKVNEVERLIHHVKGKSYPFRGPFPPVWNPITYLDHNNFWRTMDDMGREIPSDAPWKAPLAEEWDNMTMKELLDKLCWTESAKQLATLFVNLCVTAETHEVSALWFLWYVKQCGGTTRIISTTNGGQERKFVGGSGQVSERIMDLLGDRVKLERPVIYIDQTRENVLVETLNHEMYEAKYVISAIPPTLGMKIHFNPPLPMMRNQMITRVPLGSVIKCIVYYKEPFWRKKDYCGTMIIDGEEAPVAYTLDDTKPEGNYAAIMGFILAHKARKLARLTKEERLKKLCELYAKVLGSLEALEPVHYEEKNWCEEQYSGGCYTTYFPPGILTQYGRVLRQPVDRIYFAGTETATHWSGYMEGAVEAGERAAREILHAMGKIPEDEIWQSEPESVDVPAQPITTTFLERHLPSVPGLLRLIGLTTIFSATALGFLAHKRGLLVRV
The assay is described as follows: Monoamine oxidase assay (Amplex Red), MAO-B. Format: biochemical. Conditions: for inhibition at 10 µM: at 10,000 nM (10 μM), read-out: % inhibition at indicated concentration, Human MAO-B; for IC50: n = 3, read-out: IC50 ± SEM, Human MAO-B. Summed up:
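Recombinant human MAO-A and MAO-B, expressed in baculovirus-infected insect cells, were assayed by Amplex Red fluorometric detection. Rat MAO-B inhibition used mitochondria-enriched fractions from male Sprague Dawley rat liver.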

Assay [5] has as its target T5, rat A2A AR (Rattus norvegicus, UniProt P30543).
T5 construct: A2A ARs of rat brain striatal membrane preparations; from tissue; host or cells: rat brain striatum membranes
The assay is described as follows: Radioligand binding assay at rat A2A AR (rat brain striatum) vs. [^3H]MSX-2. To be noted: rat (r); for Ki: rat brain striatum, n = 3, read-out: Ki ± SEM, A2A vs. [^3H]MSX-2. An outline of the steps:
as §3

Assay [6] addresses T6, human A3 AR (Homo sapiens, UniProt P0DMS8).
T6 construct: expressed in transfected cells; host or cells: CHO cells
T6 sequence (P0DMS8 1-318): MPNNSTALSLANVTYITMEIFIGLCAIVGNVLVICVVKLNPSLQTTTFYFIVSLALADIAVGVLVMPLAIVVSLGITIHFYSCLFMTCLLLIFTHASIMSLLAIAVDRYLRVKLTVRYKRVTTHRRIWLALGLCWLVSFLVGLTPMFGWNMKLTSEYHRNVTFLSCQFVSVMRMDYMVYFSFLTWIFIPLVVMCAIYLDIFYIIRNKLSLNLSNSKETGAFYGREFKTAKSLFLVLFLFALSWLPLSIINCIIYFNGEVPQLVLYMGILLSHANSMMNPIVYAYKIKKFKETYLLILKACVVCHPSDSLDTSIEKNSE
The assay is described as follows: Radioligand binding assay at human A3 AR vs. [^3H]PSB-11. Conditions: for Ki: CHO cell membranes, n = 2 (n = 3 where marked a), read-out: Ki ± SEM, A3 vs. [^3H]PSB-11; for inhibition at 10 µM: at 10,000 nM, read-out: % inhibition of radioligand binding at indicated concentration, A3 vs. [^3H]PSB-11. Summed up: as §3

Assay [7] addresses T7, human A1 AR (Homo sapiens, UniProt P30542).
T7 construct: expressed in transfected cells; host or cells: CHO cells
T7 sequence (P30542 1-326): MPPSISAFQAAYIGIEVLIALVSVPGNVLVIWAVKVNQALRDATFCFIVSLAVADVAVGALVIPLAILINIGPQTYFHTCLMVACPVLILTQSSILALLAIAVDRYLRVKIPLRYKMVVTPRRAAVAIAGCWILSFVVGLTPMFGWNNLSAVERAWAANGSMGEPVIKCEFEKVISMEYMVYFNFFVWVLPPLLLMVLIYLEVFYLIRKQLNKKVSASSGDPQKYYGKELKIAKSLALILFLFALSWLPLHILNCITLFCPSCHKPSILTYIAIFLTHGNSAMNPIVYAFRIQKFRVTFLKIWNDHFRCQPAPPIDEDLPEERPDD
The assay is described as follows: Radioligand binding assay at human A1 AR vs. [^3H]CCPA. Conditions: human (h); CHO cell membranes; n = 3. On the procedure:
as §1, §2

T5 sequence (P30543 whole entry): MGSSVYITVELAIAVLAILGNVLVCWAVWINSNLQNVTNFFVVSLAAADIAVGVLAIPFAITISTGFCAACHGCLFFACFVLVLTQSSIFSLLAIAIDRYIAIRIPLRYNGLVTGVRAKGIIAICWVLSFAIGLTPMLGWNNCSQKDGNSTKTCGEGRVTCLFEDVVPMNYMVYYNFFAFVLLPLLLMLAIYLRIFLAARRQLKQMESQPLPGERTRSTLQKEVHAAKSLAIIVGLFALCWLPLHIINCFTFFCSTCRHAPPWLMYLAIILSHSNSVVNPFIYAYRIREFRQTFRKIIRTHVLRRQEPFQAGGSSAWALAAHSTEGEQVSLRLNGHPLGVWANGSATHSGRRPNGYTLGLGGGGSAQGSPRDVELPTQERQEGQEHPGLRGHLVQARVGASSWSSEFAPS
T1 sequence (P29274 whole entry): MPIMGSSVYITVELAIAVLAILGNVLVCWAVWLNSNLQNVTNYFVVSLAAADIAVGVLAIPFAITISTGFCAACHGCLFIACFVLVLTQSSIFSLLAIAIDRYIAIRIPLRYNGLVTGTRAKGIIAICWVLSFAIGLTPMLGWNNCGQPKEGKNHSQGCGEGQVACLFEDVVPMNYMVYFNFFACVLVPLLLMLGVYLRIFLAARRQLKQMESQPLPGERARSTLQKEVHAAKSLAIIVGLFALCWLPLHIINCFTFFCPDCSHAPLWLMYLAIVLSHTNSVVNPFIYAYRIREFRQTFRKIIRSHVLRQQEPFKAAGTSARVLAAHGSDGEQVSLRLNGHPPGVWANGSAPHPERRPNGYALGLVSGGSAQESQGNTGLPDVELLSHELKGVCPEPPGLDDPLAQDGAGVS

Usually Ki stands for the dissociation constant of the complex between target and ligand, obtained from inhibition or displacement. What is called IC50 is the midpoint of a concentration-inhibition curve. Take `CCn1c(=O)c2c(nc3n2CCN(Cc2cccc(Cl)c2)C3)n(CC)c1=O` [Compound 15c, 8-(3-chlorobenzyl)-1,3-diethyl-6,7,8,9-tetrahydropyrazino[2,1-f]purine-2,4(1H,3H)-dione]: the Ki was 2380 nM in assay [1]; > 1000 nM in assay [2]; 85.9 ± 28.6 nM in assay [3]; > 1000 nM in assay [5]; 5410 nM in assay [6]; 128 ± 17 nM in assay [7]. Moreover, the inhibition at 1 µM in assay [2] amounted to 12%. Further, in assay [4], the inhibition at 10 µM turned out to be 47%. In addition, the IC50 in assay [4] was ≥ 10000 nM. In assay [5] (at 1,000 nM), the “% inhibition of radioligand binding at indicated concentration, A2A vs. [^3H]MSX-2” value was 22%.
For the compound `C#CCn1c(=O)c2c(nc3n2CCN(Cc2cccc(OC)c2)C3)n(CC)c1=O` [Compound 20g, 1-ethyl-8-(3-methoxybenzyl)-3-propargyl-6,7,8,9-tetrahydropyrazino[2,1-f]purine-2,4(1H,3H)-dione], the Ki is 542 ± 169 nM in assay [1]; > 1000 nM in assay [2]; 118 ± 22 nM in assay [3]; 769 ± 77 nM in assay [5]; > 10000 nM in assay [6]; 124 ± 90 nM in assay [7]. In addition, the inhibition at 1 µM in assay [2] came to 22%. Moreover, the values for the inhibition at 10 µM in assay [4] and in assay [6] were 41% and 40%, respectively. Besides, the IC50 in assay [4] is > 10000 nM.
For `C#CCn1c(=O)c2c(nc3n2CCN(CCc2ccccc2)C3)n(CC)c1=O` [Compound 20h, 1-ethyl-8-phenethyl-3-propargyl-6,7,8,9-tetrahydropyrazino[2,1-f]purine-2,4(1h,3h)-dione], the Ki in assay [1] was 149 ± 28 nM; in assay [2] it was > 1000 nM; in assay [3], 117 ± 2 nM; in assay [5], 1700 nM; in assay [6], > 10000 nM; in assay [7] it was 2440 nM. Further, in assay [2], the inhibition at 1 µM was determined as 16%. Also, the inhibition at 10 µM turned out to be 27% in assay [4] and 36% in assay [6]. Also, the IC50 in assay [4] was > 10000 nM.
`CCn1c(=O)c2c(nc3n2CCN(Cc2cccc(Br)c2)C3)n(CC)c1=O` [Compound 15d, 8-(3-bromobenzyl)-1,3-diethyl-6,7,8,9-tetrahydropyrazino[2,1-f]purine-2,4(1H,3H)-dione]: the Ki in assay [1] came to 1050 nM; in assay [2], 496 ± 135 nM; in assay [3] it was 21.5 ± 8.3 nM; in assay [5] it was 1040 nM; in assay [6], 7220 nM; in assay [7], 13.6 ± 2.1 nM. Also, the inhibition at 10 µM in assay [4] came out at 49%. The IC50 in assay [4] is ≥ 10000 nM.
On to `C#CCn1c(=O)c2c(nc3n2CCN(Cc2ccccc2)C3)n(CC)c1=O` [Compound 20e, 8-benzyl-1-ethyl-3-propargyl-6,7,8,9-tetrahydropyrazino[2,1-f]purine-2,4(1H,3H)-dione], for which the Ki is 282 ± 38 nM in assay [1]; > 1000 nM in assay [2]; 118 ± 28 nM in assay [3]; 245 ± 39 nM in assay [5]; > 10000 nM in assay [6]; 180 ± 28 nM in assay [7]. Further, the inhibition at 1 µM in assay [2] is 2%. Besides, the inhibition at 10 µM in assay [4] was found to be 20%; in assay [6] it was 35%. The IC50 in assay [4] was > 10000 nM.
On to `CCn1c(=O)c2c(nc3n2CCN(Cc2cc(F)cc(C(F)(F)F)c2)C3)n(C)c1=O` [Compound 14p, 3-ethyl-8-(3-fluoro-5-(trifluoromethyl)benzyl)-1-methyl-6,7,8,9-tetrahydropyrazino[2,1-f]purine-2,4(1H,3H)-dione], for which the Ki in assay [1] is 503 ± 121 nM; in assay [2] it was > 1000 nM; in assay [3] it was 111 ± 25 nM; in assay [5] it was 801 ± 99 nM; in assay [6], > 10000 nM; in assay [7], 330 ± 67 nM. For the same compound, the inhibition at 1 µM in assay [2] is 5%. Also, the inhibition at 10 µM in assay [4] was determined as 23%; in assay [6], 39%. Besides, the IC50 in assay [4] was > 10000 nM.
For the compound `C#CCn1c(=O)c2c(nc3n2CCN(CCc2ccccc2OC)C3)n(CC)c1=O` [Compound 20i, 1-ethyl-8-(2-methoxyphenethyl)-3-propargyl-6,7,8,9-tetrahydropyrazino[2,1-f]purine-2,4(1H,3H)-dione], the Ki in assay [1] was 3230 nM; in assay [2] it was > 1000 nM; in assay [3] it was 701 ± 204 nM; in assay [5], 883 ± 265 nM; in assay [6], 5830 nM; in assay [7] it was 1260 nM. The inhibition at 1 µM in assay [2] stood at 24%. Also, the inhibition at 10 µM in assay [4] was determined as 26%. Also, in assay [4], the IC50 was > 10000 nM.

These data come from PMC6028563, “Probing Substituents in the 1- and 3-Position: Tetrahydropyrazino-Annelated Water-Soluble Xanthine Derivatives as Multi-Target Drugs With Potent Adenosine Receptor Antagonistic Activity” (Frontiers in Chemistry, 2018).
